Results reported in ChEMBL document CHEMBL1201862, “PubChem BioAssay data set” (2004).
Calls of active or inactive are those of the source.

Key:
[1] = biological target: T1, E3 ubiquitin-protein ligase XIAP (Homo sapiens, UniProt P98170); experiment: XIAP antagonists, biochemical, IAP family, fluorescence polarization (AID 1018); format: functional
[2] = biological target: T1, E3 ubiquitin-protein ligase XIAP; experiment: Counter Screen using XIAP-Bir3 for Chemical Antagonists of Bir1/2 domains of IAP-family anti-apoptotic proteins. [Related pubchem assays (depositor defined):AID1018, AID1449, AID1514, AID1638, AID1749, AID1750, AID488957, AID488963]
[3] = system: CHO-K1; experiment: (§1) Counterscreen for antagonists of the orexin 1 receptor (OX1R; HCRTR1): Homogeneous time resolved fluorescence (HTRF)-based cell-based dose response assay to identify antagonists of the parental CHO-K1 cell line. [Related pubchem assays (depositor defined):AID434989, AID435008, AID463079, AID485270, AID492963, AID492964, AID492965, AID493232, AID504699, AID504701]; format: functional; settings: Cricetulus griseus
[4] = biological target: T2, Orexin/Hypocretin receptor type 1 (Homo sapiens, UniProt O43613); experiment: (§2) Fluorescence-based cell-based high throughput dose response assay for antagonists of the orexin 1 receptor (OX1R; HCRTR1). [Related pubchem assays (depositor defined):AID434989, AID435008, AID463079, AID485270, AID492963, AID492964, AID492965, AID493232, AID504717, AID504718]; format: functional
[5] = biological target: T2, Orexin/Hypocretin receptor type 1; experiment: as §2, with “Homogeneous Time Resolved Fluorescence (HTRF)-based” for “Fluorescence-based”; format: functional
[6] = HEp-2 cell cytotoxicity, dose response, cytotoxicity control for RSV inhibitor project, HTS (AID 2410); format: functional; settings: human respiratory syncytial virus
[7] = as §1, with “Fluorescence-based” for “Homogeneous time resolved fluorescence (HTRF)-based”, “cell-based high throughput” for “cell-based”, “CHO” for “CHO-K1”; format: functional
[8] = system: Vero; experiment: Vero cell cytotoxicity, cytotoxicity control for flavivirus capping enzyme inhibitors (AID 588742); format: functional; settings: Chlorocebus sabaeus
[9] = biological target: Hepatocyte nuclear factor 4-alpha (Homo sapiens, UniProt P41235); format: functional, cell-based;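 further: biochemical luminescence-based dose-response counterscreen measuring inhibition of HNF4 dimerization, run alongside a screen for blockers of ABHD5–perilipin-5 interaction; split luciferase complementation of HNF4 fusion proteins in cell lysate measuring dimerization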
[10] = biological target: T3, Replicative DNA helicase DnaB (Mycobacterium tuberculosis, UniProt P9WMR3); experiment: DnaB intein splicing inhibitors, dose response, biochemical, cell-free fluorescence (AID 449749); format: functional
T3 sequence (P9WMR3 whole entry): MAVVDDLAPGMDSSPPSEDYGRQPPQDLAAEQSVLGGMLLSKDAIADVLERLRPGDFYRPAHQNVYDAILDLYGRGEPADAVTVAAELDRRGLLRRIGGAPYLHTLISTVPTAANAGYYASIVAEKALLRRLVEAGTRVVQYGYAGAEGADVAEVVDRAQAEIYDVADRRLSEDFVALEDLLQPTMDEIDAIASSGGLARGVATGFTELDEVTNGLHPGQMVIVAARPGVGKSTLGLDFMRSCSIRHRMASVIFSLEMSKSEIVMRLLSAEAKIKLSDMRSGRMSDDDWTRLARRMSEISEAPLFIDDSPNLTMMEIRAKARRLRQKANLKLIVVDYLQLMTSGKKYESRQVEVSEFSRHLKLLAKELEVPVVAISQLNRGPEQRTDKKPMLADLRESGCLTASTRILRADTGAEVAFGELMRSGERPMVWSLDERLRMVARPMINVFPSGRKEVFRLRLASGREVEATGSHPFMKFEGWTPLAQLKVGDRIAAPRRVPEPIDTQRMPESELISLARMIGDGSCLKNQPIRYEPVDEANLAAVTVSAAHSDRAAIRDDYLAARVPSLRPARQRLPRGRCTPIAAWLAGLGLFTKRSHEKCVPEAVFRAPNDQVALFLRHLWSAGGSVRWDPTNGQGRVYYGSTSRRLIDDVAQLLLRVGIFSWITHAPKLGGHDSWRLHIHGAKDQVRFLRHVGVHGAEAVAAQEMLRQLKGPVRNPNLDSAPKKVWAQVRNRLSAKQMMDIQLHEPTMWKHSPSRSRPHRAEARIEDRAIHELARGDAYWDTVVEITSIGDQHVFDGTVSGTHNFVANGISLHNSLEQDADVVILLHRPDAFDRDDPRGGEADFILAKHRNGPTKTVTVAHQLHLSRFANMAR

[11] = control 3'UTR Renilla luciferase suppression, dose response, counter-screen for Shn3 inhibitor project, cell-based, Clone20-Shn3RL, cherry-picked (AID 624133); format: functional
[12] = biological target: Genome polyprotein (dengue virus type 2, UniProt P29990); experiment: Dengue-2 NS5 methyltransferase inhibitors, primary screen, biochemical, confirmation dose response (AID 588689); format: functional
[13] = Shn3 3'UTR reporter inhibitors, dose response, cell-based, Clone20 osteoblasts, firefly luciferase, cherry-picked (AID 624132); format: functional;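 further: firefly luciferase luminescence from reporter carrying the Shn3 3'UTR in osteoblasts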
[14] = Intein inhibitors as potential Tuberculosis drugs, a cytotoxicity screen. [Related pubchem assays (depositor defined):AID2221, AID2223, AID434968, AID435010, AID449749, AID449750, AID489010]; format: functional
[15] = biological target: Potassium voltage-gated channel subfamily KQT member 2 (Rattus norvegicus, UniProt O88943, W236L); experiment: KCNQ2 channel potentiators, dose response, mechanism study for KCNQ2 potentiator project, cell-based, automated electrophysiology (AID 2603); format: functional
[16] = biological target: T4, Protein RecA (Mycobacterium tuberculosis, UniProt P9WHJ3); experiment: Fluorescence Cell-Free Homogeneous Dose Retest to Identify Inhibitors of RecA-Intein Splicing Activity. [Related pubchem assays (depositor defined):AID2097, AID2223, AID489010, AID492950]; format: functional
T4 sequence (P9WHJ3 whole entry): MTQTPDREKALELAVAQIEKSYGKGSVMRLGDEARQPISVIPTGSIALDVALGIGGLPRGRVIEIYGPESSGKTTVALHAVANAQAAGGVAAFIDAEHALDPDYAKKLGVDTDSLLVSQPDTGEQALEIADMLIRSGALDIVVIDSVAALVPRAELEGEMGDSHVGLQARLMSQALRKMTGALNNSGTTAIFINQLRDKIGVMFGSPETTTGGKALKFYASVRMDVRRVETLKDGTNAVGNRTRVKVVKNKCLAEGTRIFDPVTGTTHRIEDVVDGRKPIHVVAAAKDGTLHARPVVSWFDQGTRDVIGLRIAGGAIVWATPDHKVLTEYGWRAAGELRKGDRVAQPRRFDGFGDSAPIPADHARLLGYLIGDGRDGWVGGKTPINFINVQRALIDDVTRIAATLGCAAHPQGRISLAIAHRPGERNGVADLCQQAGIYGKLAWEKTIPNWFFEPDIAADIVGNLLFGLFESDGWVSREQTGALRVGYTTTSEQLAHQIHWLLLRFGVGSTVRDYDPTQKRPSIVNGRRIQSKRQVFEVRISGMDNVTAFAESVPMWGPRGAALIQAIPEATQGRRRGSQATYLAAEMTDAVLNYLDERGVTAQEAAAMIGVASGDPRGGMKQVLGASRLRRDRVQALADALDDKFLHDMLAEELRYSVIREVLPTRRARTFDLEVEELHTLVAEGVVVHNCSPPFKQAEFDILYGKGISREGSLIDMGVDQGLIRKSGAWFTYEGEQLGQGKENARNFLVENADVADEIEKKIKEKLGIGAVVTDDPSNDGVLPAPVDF

[17] = biological target: Cytochrome P450 2D6 (Homo sapiens, UniProt P10635);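 further: CYP2D6 member of a cytochrome P450 panel assay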
[18] = biological target: T5, Coagulation factor XII (Homo sapiens, UniProt P00748); experiment: FXIIa inhibitor potency, concentration-response, biochemical (AID 716); format: functional
T5 sequence (P00748 whole entry): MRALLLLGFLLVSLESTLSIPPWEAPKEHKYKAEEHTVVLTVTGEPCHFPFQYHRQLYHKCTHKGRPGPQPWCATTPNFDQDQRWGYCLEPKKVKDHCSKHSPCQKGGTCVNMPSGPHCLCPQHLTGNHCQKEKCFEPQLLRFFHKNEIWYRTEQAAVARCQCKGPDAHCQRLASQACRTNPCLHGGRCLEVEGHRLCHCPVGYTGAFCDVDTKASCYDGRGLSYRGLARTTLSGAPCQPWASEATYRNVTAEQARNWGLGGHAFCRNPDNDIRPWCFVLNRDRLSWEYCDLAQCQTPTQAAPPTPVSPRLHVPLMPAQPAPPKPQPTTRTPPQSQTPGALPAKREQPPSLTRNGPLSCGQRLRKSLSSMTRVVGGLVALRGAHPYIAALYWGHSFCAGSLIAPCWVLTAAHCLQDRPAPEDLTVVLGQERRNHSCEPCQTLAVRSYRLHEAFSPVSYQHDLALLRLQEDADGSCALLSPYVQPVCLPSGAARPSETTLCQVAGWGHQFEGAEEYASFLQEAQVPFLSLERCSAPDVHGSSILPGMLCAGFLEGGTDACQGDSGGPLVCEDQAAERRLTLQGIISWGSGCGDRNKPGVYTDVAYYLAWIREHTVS

[19] = biological target: Cytochrome P450 2C19 (Homo sapiens, UniProt P33261); experiment: Cytochrome panel assay with activity outcomes. Panel member name: p450-cyp2c19 Compounds with AC50 equal or less than 10 uM are considered active; format: functional; settings: read-out: AC50
[20] = CRF-BP/CRF-R2 complex antagonists, dose response, cell-based, uHTS hits, 384-well (AID 651639); format: functional, Homo sapiens; settings: read-out: IC50_Mean
[21] = biological target: T6, Corticotropin-releasing factor receptor 2/Corticotropin-releasing factor-binding protein (Homo sapiens, UniProt P24387+Q13324); experiment: activators of CRF receptor 2 with binding protein – uHTS hits, confirmation (AID 602473); format: functional; settings: read-out: EC50_Mean
T6 sequence (Q13324 whole entry): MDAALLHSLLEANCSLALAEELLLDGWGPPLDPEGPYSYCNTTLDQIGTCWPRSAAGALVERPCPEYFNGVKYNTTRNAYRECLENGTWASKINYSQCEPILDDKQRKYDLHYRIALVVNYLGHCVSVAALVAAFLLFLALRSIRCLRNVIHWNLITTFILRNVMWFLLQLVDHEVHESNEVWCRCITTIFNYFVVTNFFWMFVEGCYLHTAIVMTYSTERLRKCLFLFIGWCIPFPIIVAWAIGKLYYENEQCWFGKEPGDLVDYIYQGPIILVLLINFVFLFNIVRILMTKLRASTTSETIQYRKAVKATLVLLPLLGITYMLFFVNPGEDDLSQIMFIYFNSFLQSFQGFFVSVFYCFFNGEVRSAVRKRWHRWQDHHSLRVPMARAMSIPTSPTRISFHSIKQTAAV
T6 sequence (P24387 whole entry): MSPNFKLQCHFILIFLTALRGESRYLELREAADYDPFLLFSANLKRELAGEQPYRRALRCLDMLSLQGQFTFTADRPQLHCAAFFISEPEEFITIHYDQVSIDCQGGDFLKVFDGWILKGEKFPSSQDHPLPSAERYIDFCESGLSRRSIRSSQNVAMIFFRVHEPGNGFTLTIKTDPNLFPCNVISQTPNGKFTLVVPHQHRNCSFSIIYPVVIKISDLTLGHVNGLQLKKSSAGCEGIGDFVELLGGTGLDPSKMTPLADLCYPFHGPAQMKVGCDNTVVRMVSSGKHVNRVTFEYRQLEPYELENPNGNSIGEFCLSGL

[22] = biological target: T6, Corticotropin-releasing factor receptor 2/Corticotropin-releasing factor-binding protein; experiment: Dose Response confirmation of uHTS hits for small molecule antagonists of the CRF-binding protein and CRF-R2 receptor complex.; format: functional; settings: read-out: IC50_Mean
[23] = biological target: Intestinal-type alkaline phosphatase (Homo sapiens, UniProt P09923); experiment: human intestinal alkaline phosphatase activators, dose response, biochemical, luminescence, uHTS hits (AID 463120); format: functional
[24] = biological target: T7, Runt-related transcription factor 1/Core-binding factor subunit beta (Homo sapiens, UniProt Q01196+Q13951); experiment: inhibitors of RUNX1 Runt–CBFb-SMMHC binding, biochemical, TR-FRET (AID 1438); format: protein assay
[25] = biological target: T7, Runt-related transcription factor 1/Core-binding factor subunit beta; experiment: inhibitors of RUNX1 Runt–CBFb-SMMHC binding, primary screen, biochemical, FRET, Cerulean-Runt, Venus-CBFb-SMMHC, uHTS (AID 1434); format: protein assay;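 further: partner is the CBFb-SMMHC leukemia fusion protein rather than wild-type CBFb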

T7 sequence (Q01196 whole entry, the tested form may be a part): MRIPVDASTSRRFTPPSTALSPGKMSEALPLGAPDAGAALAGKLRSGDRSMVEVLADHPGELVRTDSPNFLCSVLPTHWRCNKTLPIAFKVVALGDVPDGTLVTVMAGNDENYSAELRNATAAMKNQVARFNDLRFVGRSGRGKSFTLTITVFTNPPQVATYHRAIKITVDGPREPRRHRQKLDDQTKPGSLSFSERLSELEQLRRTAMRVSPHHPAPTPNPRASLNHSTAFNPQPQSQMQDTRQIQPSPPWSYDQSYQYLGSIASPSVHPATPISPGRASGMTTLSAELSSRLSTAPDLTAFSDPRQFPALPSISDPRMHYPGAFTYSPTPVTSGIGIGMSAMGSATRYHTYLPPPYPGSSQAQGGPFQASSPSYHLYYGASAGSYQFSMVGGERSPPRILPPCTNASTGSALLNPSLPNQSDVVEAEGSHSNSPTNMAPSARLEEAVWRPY
T7 sequence (Q13951 whole entry, the tested form may be a part): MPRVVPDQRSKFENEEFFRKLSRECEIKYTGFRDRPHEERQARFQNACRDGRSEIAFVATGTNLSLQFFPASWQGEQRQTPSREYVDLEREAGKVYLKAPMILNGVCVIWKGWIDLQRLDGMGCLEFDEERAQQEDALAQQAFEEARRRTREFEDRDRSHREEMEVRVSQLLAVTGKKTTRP
T1 sequence (P98170 whole entry): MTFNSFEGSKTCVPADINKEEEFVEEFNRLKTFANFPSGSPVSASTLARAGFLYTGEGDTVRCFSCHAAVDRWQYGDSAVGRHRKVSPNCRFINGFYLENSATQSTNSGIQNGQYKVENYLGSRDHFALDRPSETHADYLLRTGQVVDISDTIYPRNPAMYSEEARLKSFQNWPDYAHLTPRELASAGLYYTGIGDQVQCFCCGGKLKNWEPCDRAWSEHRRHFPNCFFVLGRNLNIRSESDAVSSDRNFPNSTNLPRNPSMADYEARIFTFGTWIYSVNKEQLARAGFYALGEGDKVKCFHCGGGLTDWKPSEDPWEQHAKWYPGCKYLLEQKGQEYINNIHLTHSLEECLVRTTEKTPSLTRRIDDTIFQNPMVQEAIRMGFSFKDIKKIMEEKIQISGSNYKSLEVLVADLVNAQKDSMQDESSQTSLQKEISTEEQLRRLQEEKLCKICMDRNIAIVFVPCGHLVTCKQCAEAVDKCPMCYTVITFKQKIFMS
T2 sequence (O43613 whole entry): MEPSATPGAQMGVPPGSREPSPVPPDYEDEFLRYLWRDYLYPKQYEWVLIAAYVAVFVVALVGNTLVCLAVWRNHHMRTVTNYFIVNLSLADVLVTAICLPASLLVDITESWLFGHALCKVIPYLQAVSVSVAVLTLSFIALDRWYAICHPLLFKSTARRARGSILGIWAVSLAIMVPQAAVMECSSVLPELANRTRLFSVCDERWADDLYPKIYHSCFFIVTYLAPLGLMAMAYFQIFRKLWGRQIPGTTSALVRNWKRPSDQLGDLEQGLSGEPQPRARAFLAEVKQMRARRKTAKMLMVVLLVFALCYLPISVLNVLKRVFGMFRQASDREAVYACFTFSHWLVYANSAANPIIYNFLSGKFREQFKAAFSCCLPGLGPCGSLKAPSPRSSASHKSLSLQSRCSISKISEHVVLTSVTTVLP
Chain of Hepatocyte nuclear factor 4-alpha (P41235 whole entry, the tested form may be a part): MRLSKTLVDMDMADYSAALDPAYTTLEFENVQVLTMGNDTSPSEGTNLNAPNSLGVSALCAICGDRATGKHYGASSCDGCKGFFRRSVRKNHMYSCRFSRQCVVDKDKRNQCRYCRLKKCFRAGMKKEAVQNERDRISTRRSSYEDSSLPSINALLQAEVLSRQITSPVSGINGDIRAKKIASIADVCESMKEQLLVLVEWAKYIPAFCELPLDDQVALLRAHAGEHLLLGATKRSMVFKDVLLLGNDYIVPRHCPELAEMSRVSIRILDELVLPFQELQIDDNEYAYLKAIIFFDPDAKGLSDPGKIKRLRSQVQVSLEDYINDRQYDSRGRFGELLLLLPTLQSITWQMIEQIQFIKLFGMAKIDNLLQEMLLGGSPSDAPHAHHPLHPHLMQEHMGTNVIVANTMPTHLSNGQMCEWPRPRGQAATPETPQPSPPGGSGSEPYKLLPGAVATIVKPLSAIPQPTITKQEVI
Chain of Intestinal-type alkaline phosphatase (P09923 whole entry): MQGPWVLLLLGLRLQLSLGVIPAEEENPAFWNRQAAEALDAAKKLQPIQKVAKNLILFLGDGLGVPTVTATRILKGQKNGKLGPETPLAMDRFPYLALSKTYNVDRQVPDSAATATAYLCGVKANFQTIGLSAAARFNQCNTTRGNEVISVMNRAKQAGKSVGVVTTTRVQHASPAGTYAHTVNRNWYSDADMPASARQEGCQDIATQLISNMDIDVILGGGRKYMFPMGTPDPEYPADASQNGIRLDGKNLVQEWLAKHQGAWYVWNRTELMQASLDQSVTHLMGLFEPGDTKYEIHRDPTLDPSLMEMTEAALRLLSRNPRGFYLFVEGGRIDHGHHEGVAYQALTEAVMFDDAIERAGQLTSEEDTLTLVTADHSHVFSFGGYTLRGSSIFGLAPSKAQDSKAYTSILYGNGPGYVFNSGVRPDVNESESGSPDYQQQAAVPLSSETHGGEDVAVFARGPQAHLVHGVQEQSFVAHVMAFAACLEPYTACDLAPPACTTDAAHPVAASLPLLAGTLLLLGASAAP
Chain of Cytochrome P450 2D6 (P10635 whole entry): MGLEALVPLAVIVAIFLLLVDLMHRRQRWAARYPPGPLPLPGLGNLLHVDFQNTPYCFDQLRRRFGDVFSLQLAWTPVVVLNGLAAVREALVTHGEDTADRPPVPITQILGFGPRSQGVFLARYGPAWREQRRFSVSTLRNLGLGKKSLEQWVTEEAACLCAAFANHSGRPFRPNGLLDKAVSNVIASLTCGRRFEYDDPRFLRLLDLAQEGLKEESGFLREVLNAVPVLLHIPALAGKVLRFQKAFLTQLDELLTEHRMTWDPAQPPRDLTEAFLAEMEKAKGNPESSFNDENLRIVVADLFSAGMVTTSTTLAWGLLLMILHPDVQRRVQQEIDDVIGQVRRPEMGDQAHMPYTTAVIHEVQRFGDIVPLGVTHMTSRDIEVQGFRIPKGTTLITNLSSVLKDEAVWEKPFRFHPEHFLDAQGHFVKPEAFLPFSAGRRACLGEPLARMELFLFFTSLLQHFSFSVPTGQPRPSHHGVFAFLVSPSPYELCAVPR
Chain of Genome polyprotein (P29990 2492-3391 limits assumed): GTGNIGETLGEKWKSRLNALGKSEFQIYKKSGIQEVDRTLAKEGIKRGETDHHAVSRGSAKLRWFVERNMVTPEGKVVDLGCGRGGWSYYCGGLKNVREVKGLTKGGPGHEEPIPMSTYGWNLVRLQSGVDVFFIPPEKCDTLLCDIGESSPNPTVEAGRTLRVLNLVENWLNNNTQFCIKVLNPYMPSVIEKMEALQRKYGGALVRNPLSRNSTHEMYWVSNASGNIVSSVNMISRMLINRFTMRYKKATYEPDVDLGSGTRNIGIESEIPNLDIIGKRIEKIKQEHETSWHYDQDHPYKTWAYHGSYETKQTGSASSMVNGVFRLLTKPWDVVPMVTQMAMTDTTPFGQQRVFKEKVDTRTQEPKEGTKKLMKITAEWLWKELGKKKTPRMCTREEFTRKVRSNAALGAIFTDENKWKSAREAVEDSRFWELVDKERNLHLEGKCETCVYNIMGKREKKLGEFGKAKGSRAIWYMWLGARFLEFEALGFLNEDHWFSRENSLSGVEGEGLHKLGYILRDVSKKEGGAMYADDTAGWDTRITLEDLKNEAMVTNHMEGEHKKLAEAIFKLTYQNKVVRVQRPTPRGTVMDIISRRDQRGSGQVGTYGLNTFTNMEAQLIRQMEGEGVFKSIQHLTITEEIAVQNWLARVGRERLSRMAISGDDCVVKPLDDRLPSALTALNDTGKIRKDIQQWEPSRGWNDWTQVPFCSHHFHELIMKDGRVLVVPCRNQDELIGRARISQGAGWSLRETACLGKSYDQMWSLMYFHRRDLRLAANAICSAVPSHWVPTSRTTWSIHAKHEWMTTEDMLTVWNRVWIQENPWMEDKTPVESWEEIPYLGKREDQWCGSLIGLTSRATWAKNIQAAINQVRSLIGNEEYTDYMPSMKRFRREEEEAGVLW
Chain of Cytochrome P450 2C19 (P33261 whole entry): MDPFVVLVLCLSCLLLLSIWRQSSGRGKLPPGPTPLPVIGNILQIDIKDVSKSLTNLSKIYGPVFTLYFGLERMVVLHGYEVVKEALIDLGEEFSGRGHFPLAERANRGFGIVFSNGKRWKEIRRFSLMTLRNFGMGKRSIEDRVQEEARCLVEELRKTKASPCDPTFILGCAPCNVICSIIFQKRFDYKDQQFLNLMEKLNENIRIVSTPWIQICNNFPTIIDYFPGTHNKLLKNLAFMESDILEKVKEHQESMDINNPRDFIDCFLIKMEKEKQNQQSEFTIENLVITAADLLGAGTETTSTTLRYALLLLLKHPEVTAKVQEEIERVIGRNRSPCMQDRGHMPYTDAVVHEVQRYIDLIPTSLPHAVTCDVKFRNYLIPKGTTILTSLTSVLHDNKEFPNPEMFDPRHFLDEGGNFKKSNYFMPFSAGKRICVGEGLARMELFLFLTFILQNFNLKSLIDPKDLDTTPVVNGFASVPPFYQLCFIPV

Compound: COc1ccc(NC(=O)N2CCC(c3nc(-c4cccs4)no3)CC2)cc1
- IC50 [1]: > 100 µM (not active)
- IC50 [2]: > 100 µM (inactive)

Compound: Cc1cc(C)cc(NC(=O)C2CCCN2S(=O)(=O)c2cccc3cccnc23)c1 (stereo not given)
- IC50 [3]: > 66.2 µM (inactive)
- IC50 [4]: 3.03 µM (active)
- IC50 [5]: 0.244 µM (active)
- CC50 [6]: 32.9 µM (active)
- IC50 [7]: > 49.7 µM (inactive)

Compound: CSc1nnc(NC(=O)c2nc(S(=O)(=O)Cc3cccc(C)c3)ncc2Cl)s1
- CC50 [8]: 24.9 µM (active)
- IC50 [9]: 4.45 µM (active)
- AC50 [10]: 3.49 µM (active)
- AC50 [11]: 11.5 µM (active)
- IC50 [12]: 44.5 µM (active)
- AC50 [13]: 4.03 µM (active)
- CC50 [14]: 26.7 µM (active)
- EC50 [15]: 1.83 µM (active)
- EC50 [16]: 3.16 µM (active)

Compound: CCS(=O)(=O)N1CCC(C(=O)NCc2ccc(F)cc2Cl)CC1
- AC50 [17]: 14.1 µM (inconclusive)
- IC50 [18]: > 50 µM (inactive)
- AC50 [19]: 39.8 µM (inconclusive)

Compound: O=C(NNc1ncnc2c1cnn2-c1ccc(F)cc1)c1ccco1
- IC50 [20]: > 20 µM (inactive)
- EC50 [21]: > 53 µM (inactive)
- IC50 [22]: < 0.368 µM (active)
- EC50 [23]: 7.17 µM (active)

Compound: CN1c2ccsc2C(O)=C(C(S)=Nc2ccc(F)c(Cl)c2)S1(=O)=O
- IC50 [24]: > 100 µM (inactive)
- IC50 [25]: > 100 µM (inactive)
